Consider one molecule from PMC6158189, “A pharmacological probe identifies cystathionine β-synthase as a new negative regulator for ferroptosis” (Cell Death & Disease, 2018).

The test has as its target hCSE (Homo sapiens, UniProt P32929). The test is described as follows: H2S in HEK293T cells transiently expressing hCSE (AzMC probe). The format is cell-based. The note with it: 10 μM, 8 h. On the procedure:
HEK293T cells were transiently transfected with empty vector (EV, i and ii), hCBS-FL (iii and iv) or hCSE (v and vi) plasmids, followed by incubation with DMSO (i–iii and v) or 10 μM CH004 (iv and vi) for 8 h before staining with 50 μM AzMC, a H2S-specific probe (“Materials and Methods” section). For larger fluorescent and bright-field images, please see Supplementary Figure 4. The expression levels of hCBS or hCSE in HEK293T cells after transient transfections were determined by western blotting using an anti-CBS antibody (3E1, 1:2000; Abnova) or anti-CSE antibody (1:500, GeneTex). The densities of protein bands for hCBS or hCSE in the blots were quantified with the ImageJ software (National Institutes of Health, Bethesda, MD, USA) and expressed as ratios of respective control (EV group). […] The fluorescent images of the H2S (blue) were accordingly quantified (“Materials and Methods” section) with ImageJ. […] A representative fluorescence image from three independent experiments is shown. […]
H2S levels in living cells were detected using a H2S-specific fluorescent probe according to a protocol described previously[31],[55]. […] After incubation with 50 μM AzMC at 37 °C for 30 min, the cells were washed 4 times with PBS, and the fluorescent images were recorded with excitation by 405 nm laser by using a A1Si (Nikon) confocal microscope. […]

hCSE, sequence (P32929 whole entry): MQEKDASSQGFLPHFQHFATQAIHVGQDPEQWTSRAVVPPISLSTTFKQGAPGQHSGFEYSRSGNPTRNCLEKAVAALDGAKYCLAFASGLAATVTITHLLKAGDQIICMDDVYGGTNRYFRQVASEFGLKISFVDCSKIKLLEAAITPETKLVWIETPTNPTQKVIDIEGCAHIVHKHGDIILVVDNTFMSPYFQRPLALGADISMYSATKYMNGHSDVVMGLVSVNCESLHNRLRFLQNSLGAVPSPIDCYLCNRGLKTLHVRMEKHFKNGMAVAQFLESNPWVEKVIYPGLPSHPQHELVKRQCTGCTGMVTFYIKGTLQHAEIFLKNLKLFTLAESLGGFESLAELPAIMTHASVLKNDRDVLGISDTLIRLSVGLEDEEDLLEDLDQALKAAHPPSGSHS

Take `Cn1nc(Cc2ccccc2)nc2c(=O)n(C)c(=O)nc1-2` [CH004, 3-benzyl-1,6-dimethylpyrimido[5,4-e][1,2,4]triazine-5,7(1H,6H)-dione]: the “effect on production of H2S” value was “did not interfere”.
